Experiments:
α-glucosidase [1] = biological target: T1, α-glucosidase (Saccharomyces cerevisiae, UniProt P53341); assay: Fluorescence quenching experiment with α-glucosidase (Stern-Volmer, double logarithmic, Van 't Hoff); assay type: binding; conditions: for Kd: Ka (binding constant) α-glucosidase
T1 construct: purchased Sigma-Aldrich Co
Protocol: Based on the previously described techniques, the fluorescence quenching experiment was somewhat modified. […] The reaction solution’s fluorescence intensity was measured in a quartz colorimetric dish using a fluorescence spectrometer (F-7100, Tokyo, Japan) at wavelengths ranging from 295 to 500 nm (emission wavelength) and 280 nm ([…]) (1.0 cm path length). The 5.0 nm excitation and emission slit widths were predetermined.
By determining the quenching constant, it is possible to discriminate between dynamic and static protein fluorescence quenching caused by compounds [39]. […] With the increase in temperature, the binding of the complex is unstable, so the quenching constant decreases. The drop in fluorescence intensity brought on by the interaction of the quencher and the fluorescence group is what causes dynamic quenching. When the collision between the quencher and the fluorescence group intensifies as the temperature rises, the quenching constant rises. The quenching mechanism of the enzyme was further studied using the Stern–Volmer equation:(2) F0/F=1+Kqτ0Q=1+Ksv[Q], where Kq is the bimolecular quenching constant, F0 represents the fluorescence intensity of starch-digesting enzymes in the absence of inhibitors, F represents the fluorescence intensity of starch-digesting enzymes in the presence of inhibitors, and τ0 is the lifetime of the fluorophore in protein (about 10^−8 s).
By calculating the thermodynamic parameters of the quenching process, the binding affinity and the main force of the reaction process were evaluated. The thermodynamic parameters are calculated using the Van ’t Hoff equation:(4) lnKa=−△H/RT+△S/R. (5) △G=△H−T△S. where Ka is the binding constant, R is the universal gas constant, and T represents the test temperature (300.15 K, 305.15 K, 310.15 K). The thermodynamic parameters ΔH, ΔS, and ΔG represent enthalpy change, entropy change, and free energy change, respectively. […] The interaction forces in the reaction process can be roughly divided into four types: hydrophobic interaction, hydrogen bonding, electrostatic interaction, and van der Waals interaction.

α-amylase = biological target: T2, α-amylase (Sus scrofa, UniProt P00690); assay: In vitro α-amylase activity assay (G3-CNP, absorbance 405 nm); assay type: biochemical, porcine
T2 construct: α-amylase (EC 232-565-6, powder, ≥5 units/mg solid) isolated from porcine pancreas; purchased Sigma-Aldrich Co; host or cells: porcine pancreas
T2 sequence (P00690 16-511): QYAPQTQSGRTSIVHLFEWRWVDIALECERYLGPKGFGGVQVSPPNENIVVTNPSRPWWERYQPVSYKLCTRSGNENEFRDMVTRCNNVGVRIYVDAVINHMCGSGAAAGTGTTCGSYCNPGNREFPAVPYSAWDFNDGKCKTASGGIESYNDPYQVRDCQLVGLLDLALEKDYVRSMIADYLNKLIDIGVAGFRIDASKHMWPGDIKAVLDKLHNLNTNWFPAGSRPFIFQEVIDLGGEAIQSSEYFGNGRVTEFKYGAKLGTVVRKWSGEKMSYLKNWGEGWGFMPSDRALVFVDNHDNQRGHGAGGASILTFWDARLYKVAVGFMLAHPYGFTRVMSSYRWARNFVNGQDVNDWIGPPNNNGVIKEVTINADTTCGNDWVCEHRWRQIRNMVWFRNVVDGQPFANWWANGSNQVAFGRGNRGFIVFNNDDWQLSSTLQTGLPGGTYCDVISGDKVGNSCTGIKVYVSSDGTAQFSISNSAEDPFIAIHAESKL
Protocol: (§1) The other reagents used in this experiment are analytically pure reagents purchased from Sigma-Aldrich Co. (St. Louis, MI, USA) unless specified otherwise.
(§2) The in vitro […] activity assay was determined using spectrophotometry, as previously reported, with only minor modifications. A total of 5 U/mL of α-amylase and the appropriate quantity of 2-chloro-4-nitrophenyl α-D-maltotrioside (G3-CNP) were produced. […] Gradient dilution with a phosphate-buffered solution was used to create sample solutions of various concentrations. First, different concentrations of compound (10 μL), an enzyme solution (40 μL), and potassium phosphate buffer (100 μL) were pre-incubated in 96-well plates at 37 °C for 10 min.
(§3) The enzymatic inhibitory activity of the tested compounds was calculated using the following formula: Inhibition %=[(Abs control−Abs sample)/Abs control]×100
(§4) The IC50 values of the tested compounds were calculated using nonlinear fitting (logit method).

α-glucosidase [2] = biological target: T1, α-glucosidase; assay: Inhibition kinetic analysis (Lineweaver-Burk) on α-glucosidase; assay type: biochemical
Protocol: The reactions of a series of compounds with substrates pNαPG and G3-CNP were tested using the Lineweaver–Burk expression in Equation (1) to calculate the maximum velocity (Vmax) and Michaelis–Menten constant (Km) values. (1) 1/v=Km/Vmax1/[S]+1/Vmax, where Vmax and Km are the maximum velocity of the enzyme and the Michaelis–Menten constant without inhibitor, respectively. [S] is the concentrations of the substrate and inhibitor.

α-glucosidase [3] = biological target: T1, α-glucosidase; assay: biochemical
Protocol: as §1
as §2, with “In phosphate buffer with a pH” for “A total”, “6.8, 0.5” for “5”, “α-glucosidase” for “α-amylase”, “p-nitrophenyl-D-glucopyranoside (pNGP)” for “2-chloro-4-nitrophenyl α-D-maltotrioside (G3-CNP)”
as §3, §4

T1 sequence (P53341 whole entry): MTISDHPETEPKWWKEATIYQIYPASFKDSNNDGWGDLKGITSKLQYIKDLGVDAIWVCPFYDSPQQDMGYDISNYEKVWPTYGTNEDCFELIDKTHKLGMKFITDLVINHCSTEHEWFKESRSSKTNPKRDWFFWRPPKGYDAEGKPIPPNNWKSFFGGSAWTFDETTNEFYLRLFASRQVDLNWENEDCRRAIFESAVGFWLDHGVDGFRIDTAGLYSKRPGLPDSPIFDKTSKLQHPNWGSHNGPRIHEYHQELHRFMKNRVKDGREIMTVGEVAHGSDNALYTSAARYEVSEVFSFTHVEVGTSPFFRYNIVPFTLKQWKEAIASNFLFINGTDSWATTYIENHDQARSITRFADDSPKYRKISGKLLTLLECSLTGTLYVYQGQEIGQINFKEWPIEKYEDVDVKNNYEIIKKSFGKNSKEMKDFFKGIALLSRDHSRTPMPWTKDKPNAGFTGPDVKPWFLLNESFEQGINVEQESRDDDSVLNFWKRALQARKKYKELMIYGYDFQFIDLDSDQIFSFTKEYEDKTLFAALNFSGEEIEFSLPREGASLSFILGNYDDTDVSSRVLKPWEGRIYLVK

O=c1c(O)c(-c2ccc(O)c(O)c2)oc2cc(O[C@@H]3O[C@H](CO)[C@@H](O)[C@H](O)[C@H]3O)cc(O)c12 [Quercimeritrin]
fluorescence quenching mechanism, α-glucosidase (α-glucosidase [1]): static quenching
Kd (α-glucosidase [1]; T 300.15 K): 1.15 µM
Kd (α-glucosidase [1]; T 305.15 K): 9.62 µM
Kd (α-glucosidase [1]; T 310.15 K): 24.4 µM
Ksv (quenching constant) α-glucosidase (α-glucosidase [1]; T 300.15 K): 0.17 ±0.03 10^5 /M
n (number of binding sites) α-glucosidase (α-glucosidase [1]; T 300.15 K): 1.35
ΔG α-glucosidase (α-glucosidase [1]; T 300.15 K): -8.15 ± 2.22 kcal/mol
Ksv (quenching constant) α-glucosidase (α-glucosidase [1]; T 305.15 K): 0.19 ±0.02 10^5 /M
n (number of binding sites) α-glucosidase (α-glucosidase [1]; T 305.15 K): 1.20
ΔG α-glucosidase (α-glucosidase [1]; T 305.15 K): -7 ± 2.24 kcal/mol
Ka (binding constant) α-glucosidase (α-glucosidase [1]; T 310.15 K): 0.41 ± 0.06 10^5 /M
Ksv (quenching constant) α-glucosidase (α-glucosidase [1]; T 310.15 K): 0.21 ±0.04 10^5 /M
n (number of binding sites) α-glucosidase (α-glucosidase [1]; T 310.15 K): 1.09
ΔG α-glucosidase (α-glucosidase [1]; T 310.15 K): -6.55 ± 1.87 kcal/mol
ΔH α-glucosidase (α-glucosidase [1]; Van 't Hoff, 300.15-310.15 K): -56.6 ± 5.598 kcal/mol
ΔS α-glucosidase (α-glucosidase [1]; Van 't Hoff, 300.15-310.15 K): -677.34 ±87.38 J/mol/K
n (number of binding sites) α-glucosidase (α-glucosidase [1]; text summary over temperatures): ~1
IC50 (α-amylase): > 250 µM
inhibition at 500 µM (α-amylase; at 500 µM, read-out: α-Amylase inhibition): 57%
inhibition mode on α-glucosidase (α-glucosidase [2]; Lineweaver-Burk diagram): competitive inhibition
Vmax α-glucosidase (α-glucosidase [2]; [I] 15.6 μM): 0.2151
Vmax α-glucosidase (α-glucosidase [2]; [I] 31.3 μM): 0.2028
Vmax α-glucosidase (α-glucosidase [2]; [I] 62.5 μM): 0.2000
Vmax α-glucosidase (α-glucosidase [2]; [I] 125 μM): 0.1916
Vmax α-glucosidase (α-glucosidase [2]; [I] 250 μM): 0.1890
Vmax α-glucosidase (α-glucosidase [2]; [I] 500 μM): 0.1761
IC50 (α-glucosidase [3]): 79.9 µM
inhibition at 500 µM (α-glucosidase [3]; read-out: α-Glucosidase inhibition): 92%
